ChEMBL document CHEMBL5131454, “Exploratory studies on soluble small molecule CD4 mimics as HIV entry inhibitors” (Bioorg Med Chem, 2022)
In brackets after ≈: the same amount, converted by molar mass.

What was measured:
[1] = (§1) Cytotoxicity against human TZM-bl cells assessed as reduction in cell viability by CellTiter-Glo 2.0 assay; format: toxicity, cell-based; conditions: TZM-bl cells
[2] = Aqueous solubility of the compound in PBS at pH 7.4 at 25 degC; format: physicochemical
[3] = tested on: TZM; test: Cytotoxicity against human TZM-bl cells assessed as reduction in cell viability at <100 uM by CellTiter-Glo 2.0 assay; format: toxicity, cell-based
[4] = tested on: TZM; test: as §1; format: toxicity, cell-based; conditions: tzm

Row | SMILES | solubility [2] | CC50 [1] | Activity [3] | CC50 [4]
1 | CC1(C)CC(NC(=O)C(=O)Nc2ccc(Cl)cc2)CC(C)(C)N1 |  | 177 µM |  | 
2 | CC1(C)CC(NC(=O)C(=O)Nc2ccc(F)nc2)CC(C)(C)N1 |  | > 300 µM |  | 
3 | N=C(N)NCCCCC(=O)NCCN1CCC(NC(=O)C(=O)Nc2ccc(F)nc2)CC12CCCCC2.O=C(O)C(F)(F)F.O=C(O)C(F)(F)F.O=C(O)C(F)(F)F (configuration not stated) |  | > 100 µM | Non-Toxic | 
4 | COCCOCCOCCOCCOCCOCCOCCOCCOCCOCCOCCOCCNC(=O)CCC(=O)N[C@@H](CCCNC(=N)N)C(=O)NCCN1CCC(NC(=O)C(=O)Nc2ccc(F)nc2)CC12CCCCC2.O=C(O)C(F)(F)F.O=C(O)C(F)(F)F.O=C(O)C(F)(F)F (some centres not stated) |  | > 100 µM | Non-Toxic | 
5 | N=C(N)NCCCCC(=O)NCCN1CCC(NC(=O)CNc2ccc(Cl)cn2)CC1.O=C(O)C(F)(F)F.O=C(O)C(F)(F)F.O=C(O)C(F)(F)F | > 50 mM | > 300 µM | Non-Toxic | 
6 | N=C(N)NCCCCC(=O)NCCN1CCC(NC(=O)C(=O)Nc2ccc(Cl)cn2)CC1.O=C(O)C(F)(F)F.O=C(O)C(F)(F)F.O=C(O)C(F)(F)F | > 50 mM | > 300 µM | Non-Toxic | 

Now from value to compound, other results behind:

Row | solubility [2] | SMILES | CC50 [1] | Activity [3] | CC50 [4]
7 | > 16.4 mM | N=C(N)NCCCCC(=O)NCCN1CCC(NC(=O)C(=O)Nc2ccc(Cl)cc2)CC12CCCCC2.O=C(O)C(F)(F)F.O=C(O)C(F)(F)F (configuration not stated) |  | Non-Toxic | 201 µM
8 | 0.47 mM (≈ 251 µg/mL) | N=C(N)NCCCCC(=O)NCCN1CCC(NC(=O)C(=O)Nc2ccc(Cl)cc2)CC12CCCCC2 (configuration not stated) |  | Non-Toxic | > 100 µM
9 | > 13 mM | COCCOCCOCCOCCOCCOCCOCCOCCOCCOCCOCCOCCNC(=O)CCC(=O)N[C@@H](CCCNC(=N)N)C(=O)NCCN1CCC(NC(=O)C(=O)Nc2ccc(Cl)cc2)CC12CCCCC2.O=C(O)C(F)(F)F.O=C(O)C(F)(F)F (some centres not stated) | > 300 µM | Non-Toxic | 
10 | > 50 mM | N=C(N)NCCCCC(=O)NCCN1CCC(NC(=O)C(=O)Nc2cncc(F)c2)CC12CCCCC2.O=C(O)C(F)(F)F.O=C(O)C(F)(F)F.O=C(O)C(F)(F)F (configuration not stated) | > 300 µM | Non-Toxic | 
11 | > 50 mM | N=C(N)NCCCCC(=O)NCCN1CCC(NC(=O)C(=O)Nc2cncc(Cl)c2)CC12CCCCC2.O=C(O)C(F)(F)F.O=C(O)C(F)(F)F.O=C(O)C(F)(F)F (configuration not stated) | 279 µM | Non-Toxic | 
